From ChEMBL document CHEMBL4138123, “Design, synthesis and biological evaluation of novel pyrazolochalcones as potential modulators of PI3K/Akt/mTOR pathway and inducers of apoptosis in breast cancer cells” (Eur J Med Chem, 2017)

How the values were obtained:
Type in all cases: functional
RXF 393 = test: Cytotoxicity against human RXF393 cells assessed as cell growth at 10 uM after 48 hrs by sulforhodamine B assay relative to control; details: RXF 393, 48 h, read-out: Activity
COLO 205 [1] = test: Cytotoxicity against human COLO205 cells assessed as cell growth at 0.01 uM after 48 hrs by sulforhodamine B assay relative to control; details: COLO 205, 48 h, read-out: Activity
ACHN = test: Cytotoxicity against human ACHN cells assessed as growth inhibition after 48 hrs by sulforhodamine B assay
M14 [2] = test: Cytotoxicity against human M14 cells assessed as growth inhibition after 48 hrs by sulforhodamine B assay; details: M14, 48 h
MDA-MB-468 [3] = test: Cytotoxicity against human MDA-MB-468 cells assessed as cell growth at 0.1 uM after 48 hrs by sulforhodamine B assay relative to control; details: MDA-MB-468, 48 h, read-out: Activity
Malme-3M [4] = test: Cytotoxicity against human MALME-3M cells assessed as cell growth at 10 uM after 48 hrs by sulforhodamine B assay relative to control; details: read-out: Activity
M14 [5] = test: Cytotoxicity against human M14 cells assessed as cell growth at 0.1 uM after 48 hrs by sulforhodamine B assay relative to control; details: M14, 48 h, read-out: Activity
OVCAR-5 = test: Cytotoxicity against human OVCAR5 cells assessed as cell growth at 100 uM after 48 hrs by sulforhodamine B assay relative to control; details: OVCAR-5, 48 h, read-out: Activity
HOP-62 = test: Cytotoxicity against human HOP62 cells assessed as cell growth at 0.01 uM after 48 hrs by sulforhodamine B assay relative to control; details: HOP-62, 48 h, read-out: Activity
SF-268 = test: Cytotoxicity against human SF268 cells assessed as cell growth at 0.01 uM after 48 hrs by sulforhodamine B assay relative to control; details: SF-268, 48 h, read-out: Activity
HT-29 = test: Cytotoxicity against human HT-29 cells assessed as cell growth at 1 uM after 48 hrs by sulforhodamine B assay relative to control; details: HT-29, 48 h, read-out: Activity
IGROV-1 [6] = test: Cytotoxicity against human IGROV1 cells assessed as cell growth at 100 uM after 48 hrs by sulforhodamine B assay relative to control; details: IGROV-1, 48 h, read-out: Activity
IGROV-1 [7] = test: Cytotoxicity against human IGROV1 cells assessed as cell growth at 0.1 uM after 48 hrs by sulforhodamine B assay relative to control; details: IGROV-1, 48 h, read-out: Activity
UO-31 [8] = test: Cytotoxicity against human UO31 cells assessed as cell growth at 100 uM after 48 hrs by sulforhodamine B assay relative to control; details: UO-31, 48 h, read-out: Activity
K562 = test: Cytotoxicity against human K562 cells assessed as cell growth at 100 uM after 48 hrs by sulforhodamine B assay relative to control; details: K562, 48 h, read-out: Activity
HCT-15 = test: Cytotoxicity against human HCT15 cells assessed as cell growth at 0.1 uM after 48 hrs by sulforhodamine B assay relative to control; details: HCT-15, 48 h, read-out: Activity
MCF7 = test: Cytotoxicity against human MCF7 cells assessed as growth inhibition after 48 hrs by sulforhodamine B assay; details: MCF7, 48 h
UO-31 [9] = test: Cytotoxicity against human UO31 cells assessed as cell growth at 0.01 uM after 48 hrs by sulforhodamine B assay relative to control; details: UO-31, 48 h, read-out: Activity
NCI-H322M = test: Cytotoxicity against human NCI-H322M cells assessed as cell growth at 0.1 uM after 48 hrs by sulforhodamine B assay relative to control; details: read-out: Activity
MDA-MB-231 = test: Cytotoxicity against human MDA-MB-231 cells assessed as cell growth at 100 uM after 48 hrs by sulforhodamine B assay relative to control; details: MDA-MB-231, 48 h, read-out: Activity
SR = test: Cytotoxicity against human SR cells assessed as cell growth at 0.1 uM after 48 hrs by sulforhodamine B assay relative to control; details: read-out: Activity
MDA-MB-468 [10] = test: Cytotoxicity against human MDA-MB-468 cells assessed as cell growth at 1 uM after 48 hrs by sulforhodamine B assay relative to control; details: MDA-MB-468, 48 h, read-out: Activity
A498 [11] = test: Cytotoxicity against human A498 cells assessed as cell growth at 0.1 uM after 48 hrs by sulforhodamine B assay relative to control; details: A498, 48 h, read-out: Activity
Malme-3M [12] = test: Cytotoxicity against human MALME-3M cells assessed as cell growth at 1 uM after 48 hrs by sulforhodamine B assay relative to control; details: read-out: Activity
NCI-H23 = test: Cytotoxicity against human NCI-H23 cells assessed as cell growth at 1 uM after 48 hrs by sulforhodamine B assay relative to control; details: NCI-H23, 48 h, read-out: Activity
M14 [13] = test: Cytotoxicity against human M14 cells assessed as cell growth at 10 uM after 48 hrs by sulforhodamine B assay relative to control; details: M14, 48 h, read-out: Activity
SNB-19 = test: Cytotoxicity against human SNB19 cells assessed as cell growth at 1 uM after 48 hrs by sulforhodamine B assay relative to control; details: SNB-19, 48 h, read-out: Activity
OVCAR-3 = test: Cytotoxicity against human OVCAR3 cells assessed as cell growth at 1 uM after 48 hrs by sulforhodamine B assay relative to control; details: OVCAR-3, 48 h, read-out: Activity
UO-31 [14] = test: Cytotoxicity against human UO31 cells assessed as cell growth at 1 uM after 48 hrs by sulforhodamine B assay relative to control; details: UO-31, 48 h, read-out: Activity
COLO 205 [15] = test: Cytotoxicity against human COLO205 cells assessed as cell growth at 1 uM after 48 hrs by sulforhodamine B assay relative to control; details: COLO 205, 48 h, read-out: Activity
HCC 2998 = test: Cytotoxicity against human HCC2998 cells assessed as growth inhibition after 48 hrs by sulforhodamine B assay; details: HCC 2998, 48 h
Malme-3M [16] = test: Cytotoxicity against human MALME-3M cells assessed as cell growth at 100 uM after 48 hrs by sulforhodamine B assay relative to control; details: read-out: Activity
786-0 = test: Cytotoxicity against human 786-0 cells assessed as cell growth at 0.1 uM after 48 hrs by sulforhodamine B assay relative to control; details: 786-0, 48 h, read-out: Activity
A498 [17] = test: Cytotoxicity against human A498 cells assessed as cell growth at 100 uM after 48 hrs by sulforhodamine B assay relative to control; details: A498, 48 h, read-out: Activity
NCI-H226 = test: Cytotoxicity against human NCI-H226 cells assessed as cell growth at 100 uM after 48 hrs by sulforhodamine B assay relative to control; details: NCI-H226, 48 h, read-out: Activity
HL-60(TB) = test: Cytotoxicity against human HL-60(TB) cells assessed as cell growth at 10 uM after 48 hrs by sulforhodamine B assay relative to control; details: HL-60, 48 h, read-out: Activity
COLO 205 [18] = test: Cytotoxicity against human COLO205 cells assessed as cell growth at 100 uM after 48 hrs by sulforhodamine B assay relative to control; details: COLO 205, 48 h, read-out: Activity

`COc1cc(-c2cc(/C=C/C(=O)c3ccc(F)c(F)c3)[nH]n2)cc(OC)c1OC` was tested, and the growth at 10 µM (RXF 393) was -20%, the growth at 0.01 µM (COLO 205 [1]) was 101% and the LC50 (ACHN) was > 100 µM. For the same compound, the TGI (ACHN) was > 100 µM, the LC50 (concentration killing 50% of cells) (M14 [2]) was > 100 µM and the TGI (M14 [2]) was 11.9 µM. For the same compound, the growth at 0.1 µM (MDA-MB-468 [3]) was 94%, the growth at 10 µM (Malme-3M [4]) was -3% and the growth at 0.1 µM (M14 [5]) was 91%. The growth at 100 µM (OVCAR-5) was -24%, the growth at 0.01 µM (HOP-62) was 100% and the growth at 0.01 µM (SF-268) was 94%. The growth at 1 µM (HT-29) was 103%, the growth at 100 µM (IGROV-1 [6]) was -1% and the growth at 0.1 µM (IGROV-1 [7]) was 97%. It also gave a growth at 100 µM (UO-31 [8]) of -16%, a growth at 100 µM (K562) of -7% and a growth at 0.1 µM (HCT-15) of 95%. The LC50 (MCF7) was > 100 µM, the TGI (MCF7) was 12.3 µM and the growth at 0.01 µM (UO-31 [9]) was 90%. For the same compound, the growth at 0.1 µM (NCI-H322M) was 94%, the growth at 100 µM (MDA-MB-231) was -49% and the growth at 0.1 µM (SR) was 106%. The growth at 1 µM (MDA-MB-468 [10]) was 79%, the growth at 0.1 µM (A498 [11]) was 96% and the growth at 1 µM (Malme-3M [12]) was 97%. The growth at 1 µM (NCI-H23) was 90%, the growth at 10 µM (M14 [13]) was 3% and the growth at 1 µM (SNB-19) was 82%. The growth at 1 µM (OVCAR-3) was 95%, the growth at 1 µM (UO-31 [14]) was 84% and the growth at 1 µM (COLO 205 [15]) was 92%. For the same compound, the LC50 (HCC 2998) was > 100 µM, the TGI (HCC 2998) was 34.1 µM and the growth at 100 µM (Malme-3M [16]) was -31%. For the same compound, the growth at 0.1 µM (786-0) was 95%, the growth at 100 µM (A498 [17]) was -40% and the growth at 100 µM (NCI-H226) was -65%. For the same compound, the growth at 10 µM (HL-60(TB)) was -29% and the growth at 100 µM (COLO 205 [18]) was -99%.
Compound `COc1cc(-c2cc(/C=C/C(=O)c3ccc(N)cc3)[nH]n2)cc(OC)c1OC` has a growth at 10 µM (RXF 393) of -64%, a growth at 0.01 µM (COLO 205 [1]) of 93% and a GI50 (ACHN) of 1.61 µM. The LC50 (ACHN) was 8.4 µM, the TGI (ACHN) was 3.67 µM and the GI50 (M14 [2]) was 1.83 µM. For the same compound, the LC50 (concentration killing 50% of cells) (M14 [2]) was 8.17 µM, the TGI (M14 [2]) was 3.86 µM and the growth at 0.1 µM (MDA-MB-468 [3]) was 83%. The growth at 10 µM (Malme-3M [4]) was -45%, the growth at 0.1 µM (M14 [5]) was 101% and the growth at 100 µM (OVCAR-5) was -66%. The growth at 0.01 µM (HOP-62) was 83%, the growth at 0.01 µM (SF-268) was 99% and the growth at 1 µM (HT-29) was 82%. For the same compound, the growth at 100 µM (IGROV-1 [6]) was -49%, the growth at 0.1 µM (IGROV-1 [7]) was 108% and the growth at 100 µM (UO-31 [8]) was -93%. The growth at 100 µM (K562) was -3%, the growth at 0.1 µM (HCT-15) was 94% and the GI50 (MCF7) was 1.5 µM. The LC50 (MCF7) was 60.5 µM, the TGI (MCF7) was 5.42 µM and the growth at 0.01 µM (UO-31 [9]) was 91%. It also gave a growth at 0.1 µM (NCI-H322M) of 103%, a growth at 100 µM (MDA-MB-231) of -77% and a growth at 0.1 µM (SR) of 87%. It also gave a growth at 1 µM (MDA-MB-468 [10]) of 50%, a growth at 0.1 µM (A498 [11]) of 85% and a growth at 1 µM (Malme-3M [12]) of 93%. The growth at 1 µM (NCI-H23) was 95%, the growth at 10 µM (M14 [13]) was -64% and the growth at 1 µM (SNB-19) was 79%. The growth at 1 µM (OVCAR-3) was 79%, the growth at 1 µM (UO-31 [14]) was 71% and the growth at 1 µM (COLO 205 [15]) was 92%. For the same compound, the GI50 (HCC 2998) was 2.01 µM, the LC50 (HCC 2998) was 6.53 µM and the TGI (HCC 2998) was 3.63 µM. It also gave a growth at 100 µM (Malme-3M [16]) of -76%, a growth at 0.1 µM (786-0) of 94% and a growth at 100 µM (A498 [17]) of -96%. For the same compound, the growth at 100 µM (NCI-H226) was -59% and the growth at 100 µM (COLO 205 [18]) was -78%.
